Experimental findings from patent US8980223B2, “Methods of preventing ischemic injury using peripheral nociceptive stimulation” (University of Cincinnati, priority 2009, dated 2015) are described below.

SMILES strings stand for the structures. “Also recorded” adds a separate entry of the source.

Assay [1] has as its system peripheral C-fiber nociceptors. Nature of the assay: Lidocaine before remote electrical stimulation and ischemia/reperfusion, infarct size. Type of assay: in vivo, mice. To be noted: 2% lidocaine, 10 μl s.c., prior to electrical stimulation and ischemia; compared with vehicle ES. The method, then: (§1) A previously described mouse model of ischemia and reperfusion (I/R) injury in vivo was used (Ren et al. (2004) J. Surg Res. 121(1):120-129; Fan et al (2005)Circulation 111(14):1792-1799; Zhou et al (2007)Cardiovascular Research 75(3) 487-497; and Diwan et a/(2007) J. Clinical Investigation 117(10):2825-2833, herein incorporated by reference in their entirety). Mice were anesthetized with sodium pentobarbital (90 mg/kg ip), intubated with PE 90 tubing and ventilated using a mouse miniventilator (Harvard Apparatus, Holliston, Mass.). All mice were continuously monitored by electrocardiography (ECG) (DigiMed Sinus Rhythm Analyzer, Micro-Med Inc), and mice without evidence of ischemia and timely reperfusion were excluded from the studies. […]
(§2) Mice were euthanized either 4 or 24 hours after reperfusion and infarct size determination and imaging were performed by previously described methods (Ren et al. (2004) J. Surg Res. 121(1):120-129 and Guo et al (1998) Am J. Physiology 275(4 Pt 2):H1375-1387, herein incorporated by reference in their entirety). […] Infarct size was determined by the method of Fishbein et al (1981) Am Heart J 101(5):593-600, herein incorporated by reference in its entirety. […]

For another assay, the system named is protein kinase C(PKC). Nature of the assay: Chelerythrine before electrical stimulation and ischemia/reperfusion, infarct size. The following applies: chelerythrine plus electrical stimulation compared with vehicle alone plus electrical stimulation. Type of assay: in vivo, mice. The source says:
FIG. 3C presents data from wild-type mice treated with chelerythrine prior to sham treatment or electrical stimulation followed by the ischemia/reperfusion procedure. Chelerythrine is a relatively selective general protein kinase C(PKC) inhibitor. Most previously described forms of preconditioning or postconditioning require PKC activation in cardiomyocytes. Typically this is indicative of activation and/or repression of specific PKC isoforms in the hearts. Infarct size as a percentage of risk region was assessed and is indicated. The hatched bar presents data from mice treated with chelerythrine and subject to sham treatment (chelerythrine control). The dotted bar presents data from mice treated with vehicle alone and electrically stimulated (vehicle ES). […]
A previously described mouse model of ischemia and reperfusion (I/R) injury in vivo was used (Ren et al. (2004) J. Surg Res. 121(1):120-129; Fan et al (2005)Circulation 111(14):1792-1799; Zhou et al (2007)Cardiovascular Research 75(3) 487-497; and Diwan et a/(2007) J. Clinical Investigation 117(10):2825-2833, herein incorporated by reference in their entirety). […] All mice were continuously monitored by electrocardiography (ECG) (DigiMed Sinus Rhythm Analyzer, Micro-Med Inc), and mice without evidence of ischemia and timely reperfusion were excluded from the studies. […]

The test system of assay [2] is murine ischemia/reperfusion model of myocardial infarction. The experiment in a line: Mouse ischemia/reperfusion model, topical capsaicin 15 min prior to coronary occlusion, infarct size. Type of assay: in vivo, mice.
The target in the next assay is T1, TRPV1 (Mus musculus, UniProt Q704Y3).
T1 construct: data from wild-type mice topically treated with capsaicin administered to the abdomen; from tissue; host or cells: living mice; skin nociceptors (C-fibers) of the abdomen
T1 sequence (Q704Y3 whole entry): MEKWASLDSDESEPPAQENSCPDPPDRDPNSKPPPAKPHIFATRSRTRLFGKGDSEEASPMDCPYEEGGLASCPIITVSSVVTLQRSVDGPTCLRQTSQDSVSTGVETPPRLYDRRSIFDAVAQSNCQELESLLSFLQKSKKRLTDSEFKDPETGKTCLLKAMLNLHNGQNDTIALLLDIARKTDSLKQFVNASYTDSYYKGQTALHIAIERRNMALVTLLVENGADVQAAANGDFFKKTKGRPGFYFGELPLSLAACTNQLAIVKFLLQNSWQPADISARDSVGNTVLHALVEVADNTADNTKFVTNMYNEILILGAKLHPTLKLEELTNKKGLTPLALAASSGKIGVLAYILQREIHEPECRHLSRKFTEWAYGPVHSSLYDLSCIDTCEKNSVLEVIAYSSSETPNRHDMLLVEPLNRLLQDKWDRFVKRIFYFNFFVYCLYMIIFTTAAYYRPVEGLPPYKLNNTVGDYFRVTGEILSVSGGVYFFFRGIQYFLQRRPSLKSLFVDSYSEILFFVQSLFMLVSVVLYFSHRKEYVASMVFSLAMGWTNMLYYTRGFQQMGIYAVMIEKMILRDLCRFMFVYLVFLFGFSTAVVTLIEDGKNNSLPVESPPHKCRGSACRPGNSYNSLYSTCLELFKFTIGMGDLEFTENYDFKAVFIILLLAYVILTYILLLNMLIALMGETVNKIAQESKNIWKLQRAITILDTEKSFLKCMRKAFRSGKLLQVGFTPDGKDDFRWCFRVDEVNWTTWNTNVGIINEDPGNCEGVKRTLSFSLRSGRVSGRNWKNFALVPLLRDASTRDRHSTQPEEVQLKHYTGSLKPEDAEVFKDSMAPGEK
The experiment in a line: Topical capsaicin before ischemia/reperfusion in wild-type versus TRPV1 knock-out mice, infarct size. In kind it is in vivo. To be noted: capsaicin topically to the abdomen prior to ischemia and reperfusion, compared to TRPVKO mice.

Assay [3] has as its system murine ischemia/reperfusion model of myocardial infarction. Nature of the assay: Topical capsaicin during ischemia or after reperfusion, infarct size. Type of assay: in vivo, mice. To be noted: p<0.01.
The next assay deals with T2, TRPV2 (Mus musculus, UniProt Q9WTR1).
T2 construct: mice that received topical probenecid application; from tissue; host or cells: living mice (topical application to skin)
T2 sequence (Q9WTR1 1-756): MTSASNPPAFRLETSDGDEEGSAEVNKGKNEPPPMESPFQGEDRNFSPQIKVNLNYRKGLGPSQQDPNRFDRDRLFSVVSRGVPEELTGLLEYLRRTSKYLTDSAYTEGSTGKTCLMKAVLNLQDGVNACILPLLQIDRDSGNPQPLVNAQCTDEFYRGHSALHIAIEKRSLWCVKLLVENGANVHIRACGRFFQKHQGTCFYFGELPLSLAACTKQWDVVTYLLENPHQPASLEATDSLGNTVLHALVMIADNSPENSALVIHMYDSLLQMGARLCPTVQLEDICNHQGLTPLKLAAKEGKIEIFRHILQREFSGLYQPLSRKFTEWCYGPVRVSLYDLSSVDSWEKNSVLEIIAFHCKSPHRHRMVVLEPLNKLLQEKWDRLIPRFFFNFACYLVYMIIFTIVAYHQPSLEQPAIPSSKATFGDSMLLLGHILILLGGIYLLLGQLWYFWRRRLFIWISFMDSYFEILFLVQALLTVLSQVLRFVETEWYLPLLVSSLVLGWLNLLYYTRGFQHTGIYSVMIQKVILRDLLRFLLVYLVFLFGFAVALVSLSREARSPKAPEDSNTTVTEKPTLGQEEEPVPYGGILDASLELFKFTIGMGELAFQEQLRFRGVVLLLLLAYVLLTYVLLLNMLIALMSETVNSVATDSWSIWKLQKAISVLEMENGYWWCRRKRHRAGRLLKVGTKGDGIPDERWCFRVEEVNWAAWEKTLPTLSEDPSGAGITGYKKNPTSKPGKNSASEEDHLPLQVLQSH
Nature of the assay: Topical probenecid in mouse ischemia/reperfusion model, infarct size. Type of assay: in vivo, mice. The following applies: topical probenecid application versus control animals; p<0.07.
Source text: FIG. 11 presents a graph of infarct size as a percent of risk area in mice that received topical probenecid application (empty bars) or sham treatments (hatched bars).
as §1, §2

For a further assay, the system named is β-adrenergic receptor. Also noted: species or system mice. To be noted: mouse, in vivo.

Source text for TRPV1: Infarct size as a percent of risk region is presented on the y-axis. The first bar presents data from wild-type mice topically treated with capsaicin administered to the abdomen prior to surgical induction of ischemia and reperfusion (WT, Capsaicin, hatched bar). The second bar presents data from TRPV 1 knockout mice topically treated with capsaicin administered to the abdomen prior to surgical induction of ischemia and reperfusion (TRPVKO, Capsaicin, dotted bar). The third bar presents data from TRPV 1 knockout mice subjected to sham treatment prior to surgical induction of ischemia and reperfusion (TRPVKO No capsaicin, empty bar).
Procedure for β-adrenergic receptor: The mice then underwent either sham treatment or electrical stimulation (ES) followed by the ischemia/reperfusion procedure.
A lateral thoracotomy (1.5 cm incision between the second and third ribs was performed to provide exposure of the left anterior descending coronary artery (LAD). Vascular bundles in the vicinity were coagulated using a microcoagulator (Medical Industries Inc, St. Petersburg Fla.). An 8-O nylon suture was placed around the LAD 2-3 mm from the tip of the left auricle and a piece of soft silicon tubing (0.64 mm ID, 1.19 mm OD) was placed over the artery. Coronary occlusion was achieved by tightening and tying the suture. Coronary occlusion was for 45 minutes, unless indicated otherwise. At the end of the occlusion, the suture was untied and left in place. Ischemia was confirmed by visual observation of cyanosis and by continuous ECG monitoring (QRS complex widening, T wave inversion and ST segment changes); reperfusion was confirmed by reversal of these effects. […]

For `CCN(CC)CC(=O)Nc1c(C)cccc1C` [lidocaine], the “infarct size as a percent of risk region” value in assay [1] is “no significant cardioprotection relative to controls; also recorded: significantly higher percentage of risk region”.

As for `COc1ccc2c(c[n+](C)c3c4cc5c(cc4ccc23)OCO5)c1OC` [chelerythrine], the “Infarct size as a percentage of risk region” value with protein kinase C(PKC) is “reduced inhibition of ischemia-related tissue damage”.

On to `COc1cc(CNC(=O)CCCC/C=C/C(C)C)ccc1O` [capsaicin, (6E)-N-[(4-Hydroxy-3-methoxyphenyl)methyl]-8-methyl-6-nonenamide], for which the “reduction of infarct size” value in assay [2] (remote pre-conditioning, stimulus given 15 minutes prior to the ischemia, 45 min coronary occlusion, versus sham, n=6) was 85%. Further, in assay [2] (remote pre-treatment prior to ischemia/reperfusion versus sham, P<0.01), the “Infarct size as a percent of the risk region” value was “substantial reduction in infarct size”. Besides, the “infarct size as a percent of risk region” value on TRPV1 is on record as “reduced myocardial infarct size”. The “infarct size as a percent of risk area” value in assay [3] (topical capsaicin application after reperfusion (postCON) versus sham) and in assay [3] (topical capsaicin application during ischemia (conditioning) versus sham) was “significantly reduces infarct size” throughout.

As for `CCCN(CCC)S(=O)(=O)c1ccc(C(=O)O)cc1` [probenecid], the “infarct size as a percent of risk region” value at TRPV2 is listed as “significantly reduced”.

Regarding `CC(C)NCC(O)COc1cccc2ccccc12` (stereo not drawn) [propanolol], the “Infarct size as a percentage of risk region” value in the assay on β-adrenergic receptor is “significantly higher”.
